Reference: US20020137929A1, “1 - (3-heterocyclylphenyl) isothiourea, -isourea, -guanidine and -amidine herbicidal agents” (Intellectual Property Department, BASF Aktiengesellschaft, priority 1998, published 2002)

Columns and labels:
ABUTH (Velvetleaf) = assay: Preemergence herbicidal evaluation; type: in vivo, Abutilon theophrasti; details: rated 4-5 weeks after treatment
Outline: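 Scores (0–9) reflect visual comparison with control plants for stand, vigor, malformation, size and chlorosis. Compound was applied to the soil after sowing, before emergence, as an aqueous acetone spray (about 0.0156–0.500 kg/ha), and cups were kept in a greenhouse for 4–5 weeks.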

[1] = test system: TRZAWR (Wheat, Winter, cv Riband); assay: Preemergence herbicidal evaluation; type: in vivo, Triticum aestivum; details: rated 4-5 weeks after treatment
Text: Results of herbicide evaluation are expressed on a rating scale (0-9). The scale is based upon a visual observation of plant stand, vigor, malformation, size, chlorosis and overall plant appearance as compared with a control.
The preemergence herbicidal activity of the test compounds of the present invention is exemplified by the following tests in which the seeds of a variety of monocotyledonous and dicotyledonous plants are separately mixed with potting soil and planted on top of approximately one inch of soil in separate pint cups. After planting, the cups are sprayed with the selected aqueous acetone solution containing test compound in sufficient quantity to provide the equivalent of about 0.0156 to 0.500 kg per hectare of test compound per cup. The treated cups are then placed on greenhouse benches, watered and cared for in accordance with conventional greenhouse procedures. From four to five weeks after treatment, the tests are terminated and each cup is examined and rated according to the rating system provided in Example 37.
The compounds evaluated are reported by compound number given in Example 37.

[2] = test system: ECHORC (Watergrass (Calif.)); assay: Preemergence weed control under flooded paddy conditions; type: in vivo, Echinochloa oryzoides; details: rated 3-4 weeks after treatment
Outline: (§1)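 Seeds or propagules sown in top 0.5 cm of silt loam soil, flooded 1.5 to 3 cm above surface throughout. Compound in 50/50 v/v aqueous/acetone pipetted into flood water at about 0.0313 to 0.500 kg/ha. Visual 0-9 rating versus control after three to four weeks in greenhouse.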

CYPIR (Rice Flatsedge) = assay: as above; type: in vivo, Cyperus iria; details: rated 3-4 weeks after treatment
Outline: as §1

[3] = test system: SAGPY (Arrowhead (Pygmaea)); assay: as above; type: in vivo, Sagittaria pygmaea; details: rated 3-4 weeks after treatment
Outline: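 Herbicidal effect is scored visually on a 0-9 scale against an untreated control, three to four weeks after compounds are pipetted into the flood water (1.5 to 3 cm deep) over seeds planted in silt loam at 0.5 cm depth. Rates: about 0.0313 to 0.500 kg/ha.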

Compound | Preemergence herbicidal rating ABUTH (ABUTH (Velvetleaf); rate 0.0313 kg/ha) | Preemergence herbicidal rating ABUTH (ABUTH (Velvetleaf); rate 0.0625 kg/ha) | Preemergence herbicidal rating ABUTH (ABUTH (Velvetleaf); rate 0.1250 kg/ha) | Preemergence herbicidal rating ABUTH (ABUTH (Velvetleaf); rate 0.2500 kg/ha) | Preemergence herbicidal rating TRZAWR ([1]; rate 0.0313 kg/ha) | Preemergence herbicidal rating TRZAWR ([1]; rate 0.0625 kg/ha) | Preemergence herbicidal rating TRZAWR ([1]; rate 0.1250 kg/ha) | Preemergence herbicidal rating TRZAWR ([1]; rate 0.2500 kg/ha) | ECHORC herbicidal effect rating ([2]; 0.0313 kg/ha) | ECHORC herbicidal effect rating ([2]; 0.0625 kg/ha) | ECHORC herbicidal effect rating ([2]; 0.1250 kg/ha) | ECHORC herbicidal effect rating ([2]; 0.2500 kg/ha) | CYPIR herbicidal effect rating (CYPIR (Rice Flatsedge); 0.0313 kg/ha) | CYPIR herbicidal effect rating (CYPIR (Rice Flatsedge); 0.0625 kg/ha) | CYPIR herbicidal effect rating (CYPIR (Rice Flatsedge); 0.1250 kg/ha) | CYPIR herbicidal effect rating (CYPIR (Rice Flatsedge); 0.2500 kg/ha) | SAGPY herbicidal effect rating ([3]; 0.0313 kg/ha) | SAGPY herbicidal effect rating ([3]; 0.0625 kg/ha) | SAGPY herbicidal effect rating ([3]; 0.1250 kg/ha) | SAGPY herbicidal effect rating ([3]; 0.2500 kg/ha) | other results
CCOC(=O)C(c1ccc(Cl)cc1)N1C(=O)CSC1=Nc1cc(-n2c(=O)cc(C(F)(F)F)n(C)c2=O)c(F)cc1Cl (racemic) [Compound 79, Ethyl α-(p-chlorophenyl)-2-{{2-chloro-5-[3,6-dihydro-3-methyl-2,6-dioxo-4-(trifluoromethyl)-1(2H)-pyrimidinyl]-4-fluorophenyl}imino}-4-oxo-3-thiazolidineacetate, DL-] | 0.0 | 2.0 | 6.0 | 9.0 | 0.0 | 1.0 | 0.0 | 1.0 | 5.0 | 6.0 | 7.0 | 8.0 | 0.0 | 0.0 | 2.0 | 6.0 | 0.0 | 0.0 | 4.0 | 4.0 | 
CCOC(=O)CN1CCSC1=Nc1cc(-n2nc(C)n(C(F)F)c2=O)c(F)cc1Cl [Compound 36] |  | 9.0 | 9.0 | 9.0 |  | 0.0 | 1.0 | 0.0 |  |  |  |  |  |  |  |  |  |  |  |  | Herbicidal rating ECHORC ([2]; 0.0313 kg/ha): 4.0; Herbicidal rating ECHORC ([2]; 0.0625 kg/ha): 6.0; Herbicidal rating ECHORC ([2]; 0.1250 kg/ha): 7.0; Herbicidal rating ECHORC ([2]; 0.2500 kg/ha): 9.0; Herbicidal rating CYPIR (CYPIR (Rice Flatsedge); 0.0313 kg/ha): 0.0; Herbicidal rating CYPIR (CYPIR (Rice Flatsedge); 0.0625 kg/ha): 5.0; Herbicidal rating CYPIR (CYPIR (Rice Flatsedge); 0.1250 kg/ha): 5.0; Herbicidal rating CYPIR (CYPIR (Rice Flatsedge); 0.2500 kg/ha): 9.0; Herbicidal rating SAGPY ([3]; 0.0313 kg/ha): 0.0; Herbicidal rating SAGPY ([3]; 0.0625 kg/ha): 0.0; Herbicidal rating SAGPY ([3]; 0.1250 kg/ha): 3.0; Herbicidal rating SAGPY ([3]; 0.2500 kg/ha): 9.0
Cn1c(C(F)(F)F)cc(=O)n(-c2cc(N=C3SCC(=O)N3[C@H](Cc3ccccc3)C(=O)O)c(Cl)cc2F)c1=O [Compound 69, α-Benzyl-2-{{2-chloro-5-[3,6-dihydro-3-methyl-2,6-dioxo-4-(trifluoromethyl)-1(2H)-pyrimidinyl]-4-fluorophenyl}imino}-4-oxo-3-thiazolidineacetic acid, D-] | 0.0 | 9.0 | 9.0 | 9.0 | 0.0 | 0.0 | 1.0 | 1.0 | 0.0 | 4.0 | 5.0 | 7.0 | 3.0 | 3.0 | 3.0 | 3.0 | 0.0 | 0.0 | 3.0 | 3.0 | Preemergence herbicidal rating ABUTH (ABUTH (Velvetleaf); rate 0.0156 kg/ha): 0.0; Preemergence herbicidal rating TRZAWR ([1]; rate 0.0156 kg/ha): 0.0
COC(=O)[C@H](Cc1ccccc1)N1C(=O)CS/C1=N/c1cc(-n2c(=O)cc(C(F)(F)F)n(C)c2=O)c(F)cc1Cl [Compound 72, Methyl α-benzyl-2-{{2-chloro-5-[3,6-dihydro-3-methyl-2,6-dioxo-4-(trifluoromethyl)-1(2H)-pyrimidinyl]-4-fluorophenyl]imino}-4-oxo-3-thiazolidineacetate, L-] | 9.0 | 9.0 | 9.0 | 9.0 | 0.0 | 0.0 | 1.0 | 2.0 | 9.0 | 9.0 | 9.0 | 9.0 | 6.0 | 6.0 | 7.0 | 9.0 | 4.0 | 4.0 | 4.0 | 4.0 | Preemergence herbicidal rating ABUTH (ABUTH (Velvetleaf); rate 0.0156 kg/ha): 2.0; Preemergence herbicidal rating TRZAWR ([1]; rate 0.0156 kg/ha): 0.0
Cn1c(C(F)(F)F)cc(=O)n(-c2cc(N=C3SCC(=O)N3C3CCOC3=O)c(Cl)cc2F)c1=O (stereo not drawn) [Compound 73] | 9.0 | 9.0 | 9.0 | 9.0 | 0.0 | 1.0 | 3.0 | 4.0 |  |  | 3.0 | 7.0 |  |  | 0.0 | 6.0 |  |  | 3.0 | 4.0 | Preemergence herbicidal rating ABUTH (ABUTH (Velvetleaf); rate 0.0156 kg/ha): 9.0; Preemergence herbicidal rating TRZAWR ([1]; rate 0.0156 kg/ha): 0.0
CCOC(=O)[C@H](C)N1C(=O)CSC1=Nc1cc(-n2c(=O)cc(C(F)(F)F)n(C)c2=O)c(F)cc1Cl [Compound 76, Ethyl 2-{{2-chloro-5-[3,6-dihydro-3-methyl-2,6-dioxo-4-(trifluoromethyl)-1(2H)-pyrimidinyl]-4-fluorophenyl}imino}-α-methyl-4-oxo-3-thiazolidineacetate, L-] | 1.0 | 9.0 | 9.0 | 9.0 | 0.0 | 3.0 | 7.0 | 9.0 | 4.0 | 7.0 | 9.0 | 9.0 | 0.0 | 0.0 | 0.0 | 6.0 | 0.0 | 0.0 | 4.0 | 4.0 | Preemergence herbicidal rating ABUTH (ABUTH (Velvetleaf); rate 0.0156 kg/ha): 1.0; Preemergence herbicidal rating TRZAWR ([1]; rate 0.0156 kg/ha): 0.0
